From US6603046B1, “Bis-aromatic a,β-unsaturated ketones” (Lica Pharmaceuticals A/S, priority 1992, dated 2003)
Read-outs that look alike come from different tables or passages of the source. Marks after values point to notes of the source that are not given here.

Assays:
[1] = system: Eimeria tenella; test: Anticoccidial activity in chickens infected with Eimeria tenella (Example 28); format: in vivo; settings: for feed consumption after 7 days of treatment / feed consumption after 14 days of treatment: amount of feed consumed per kg chicken weight gain, doses as Table 28.1; for Weight gain in 7 days after initiation of treatment / Weight gain in 14 days after initiation of treatment: in feed: salinomycin 70 ppm, 2,5 m4′ac and 2,4 mc 30 mg/kg/day, licochalcone A 10 mg/kg/day; for Mortality: number of chickens, groups of 35, licochalcone A 20
[2] = system: P. yoelii strain YM; test: P. yoelii strain YM infection in mice, parasitemia and mortality (Example 16); format: in vivo, BALB/c mice; settings: Table 16.12
[3] = system: human lymphocytes; test: Lymphocyte Proliferation Assay, 3H-thymidine incorporation (Example 13); settings: Homo sapiens, Lymphocyte, read-out: inhibition of lymphocytes (lower figure)
[4] = system: L. major promastigotes; test: L. major promastigotes from 4-days cultures, 3H-thymidine uptake (Examples 5, 14); format: cell-based, Leishmania major; settings: Leishmania major, Table 14.1, read-out: percentage inhibition of promastigotes (upper figure); for inhibition at 0.5 µg/mL: 0.5 μg/ml; for inhibition at 1 µg/mL: 1 μg/ml; for inhibition at 5 µg/mL: 5 μg/ml; for inhibition at 10 µg/mL: 10 μg/ml
Method: Parasite cultures. The same parasite culture as described in Example 4. Promastigotes were harvested on day 4 of the culture and used for the parasiticidal assay.
Effect on promastigotes. […] Following incubation, […] of ^3H-thymidine was added to each well and further incubated for 18 hrs. Promastigotes were then harvested on filter paper by means of a cell harvester (Skatron, Lierbyen, Norway), extensively washed with distilled water and counted in a scintillation counter (Minaxi Ti-Carb 4000, United Technologies, Packard, USA).
L. major promastigotes. The L. major promastigotes were prepared as described in Example 4 and harvested after 4 days.

[5] = system: P. falciparum; test: P. falciparum growth in vitro (Table 14.1, strain not stated); format: cell-based; settings: Plasmodium falciparum; for inhibition at 1 µg/mL: 1 μg/ml; for inhibition at 5 µg/mL: 5 μg/ml; for inhibition at 10 µg/mL: 10 μg/ml
Method: The P. falciparum experimental setup was as described in Example 15.
Testing of the effect of drugs and serum on the in vitro growth of the parasites. The experiments in which compounds were tested for their ability to inhibit parasite growth were performed by a modification of the method originally described by Jensen et al. (1982). Fifty μl of parasitized erythrocytes (parasitemia approximately 1%) in a concentration of 5×10^8/ml and 50 μl of RPMI medium containing different concentrations of the test compound was added to each well of a 96 well flat-bottomed microtiter plate (Nunc). The cultures were then incubated for 48 hours, 24 hours before termination of the culture adding 20 μl of 3-H-hypoxanthine (40 uCi/ml) (New England Nuclear, Boston, Mass., USA) was added to each well. The cultures were then harvested onto glass fiber filters using a Skatron cell harvester (Skatron, Lierbyen, Norway), and the incorporation of 3-H-hypoxanthine into the DNA of dividing parasites was determined by liquid scintillation spectrometry.

[6] = system: chloroquine resistant P. falciparum DD2 strain; test: In vitro growth of P. falciparum DD2, 3H-hypoxanthine uptake (Example 15); format: cell-based, Plasmodium falciparum; settings: title: percentage inhibition of 3H-hypoxanthine uptake
[7] = D + 5, i.p. 40 mg/kg twice daily
[8] = D + 6, i.p. 10 mg/kg twice daily
[9] = D + 6, i.p. 20 mg/kg twice daily
[10] = D + 6, i.p. 30 mg/kg twice daily
[11] = D + 6, i.p. 40 mg/kg twice daily
[12] = D + 8, i.p. 20 mg/kg twice daily
[13] = D + 8, i.p. 30 mg/kg twice daily
[14] = D + 10, i.p. 30 mg/kg twice daily
[15] = 0.5 μg/ml, read-out: inhibition of malaria parasites (middle figure) (converted)
[16] = read-out: inhibition of malaria parasites (middle figure) (converted)

| Compound | inhibition at 0.5 µg/mL [3] [%] | inhibition at 1 µg/mL [3] [%] | inhibition at 5 µg/mL [3] [%] | inhibition at 10 µg/mL [3] [%] | inhibition at 0.5 µg/mL [4] [%] | inhibition at 1 µg/mL [4] [%] | inhibition at 5 µg/mL [4] [%] | inhibition at 10 µg/mL [4] [%] | inhibition at 0.5 µg/mL [5, 15] [%] | inhibition at 1 µg/mL [5, 16] [%] | inhibition at 5 µg/mL [5, 16] [%] | inhibition at 10 µg/mL [5, 16] [%] | other results |
| --- | --- | --- | --- | --- | --- | --- | --- | --- | --- | --- | --- | --- | --- |
| COc1ccc(/C=C/C(=O)c2ccccc2)c(OC)c1 [2,4mc, 2,4-dimethoxychalcone] | – | – | – | – | – | – | – | – | – | – | – | – | feed consumption after 7 days of treatment [1]: 1.30; feed consumption after 14 days of treatment [1]: 1.48; Weight gain in 7 days after initiation of treatment [1]: 380 grams per chicken; Weight gain in 14 days after initiation of treatment [1]: 803^ grams per chicken; Mortality [1]: 1; % parasitemia [2, 7]: 78%; mortality (no. of dead mice/total no. of tested mice) [2, 7]: 4/5; mortality (no. of dead mice/total no. of tested mice) [2, 8]: (5/5); % parasitemia [2, 9]: 85%; mortality (no. of dead mice/total no. of tested mice) [2, 9]: 4/5; % parasitemia [2, 10]: 29%; mortality (no. of dead mice/total no. of tested mice) [2, 10]: 3/5; mortality (no. of dead mice/total no. of tested mice) [2, 11]: (5/5); mortality (no. of dead mice/total no. of tested mice) [2, 12]: (5/5); % parasitemia [2, 13]: 15%; mortality (no. of dead mice/total no. of tested mice) [2, 13]: 4/5; % parasitemia [2, 14]: 65%; mortality (no. of dead mice/total no. of tested mice) [2, 14]: 4/5; mortality (no. of dead mice/total no. of tested mice) ([2]; D + 12, i.p. 30 mg/kg twice daily): (5/5) |
| C=CCOc1ccc(C(=O)/C=C/c2cc(OC)ccc2OC)cc1 [drawing 78] | 5.7 | 12.6 | 4.3 | 2.3 | 10 ± 9.7 | 15.6 ± 15.1 | 63 ± 15.1 | 89.4 ± 10.2 | 0 | 0 | 35 | 80 | – |
| CC[C@@H](C(=O)[C@@H](C)[C@@H](O)[C@H](C)[C@@H]1O[C@@H]([C@@H](CC)C(=O)O)CC[C@@H]1C)[C@H]1O[C@]2(C=C[C@@H](O)[C@]3(CC[C@@](C)([C@H]4CC[C@](O)(CC)[C@H](C)O4)O3)O2)[C@H](C)C[C@@H]1C [salinomycin, reference compound] | – | – | – | – | – | – | – | – | – | – | – | – | feed consumption after 7 days of treatment [1]: 1.30; feed consumption after 14 days of treatment [1]: 1.44; Weight gain in 7 days after initiation of treatment [1]: 425 grams per chicken; Weight gain in 14 days after initiation of treatment [1]: 900^a grams per chicken; Difference in weight gain to group 5 (control infected) after treatment for 14 days ([1]; normal variation ±2%): ^aDifference between groups 1 (standard feed) and 5 (control infected) after treatment for 14 days is 12%.; Mortality [1]: 0 |
| C=CCOc1ccc(C(=O)/C=C/c2cc(OC)ccc2OC)cc1 [2,5-Dimethoxy-4′-allyloxychalcone, 2,5-dimethoxy-4′-prop-2enyloxychalcone] | – | – | – | – | – | – | – | – | – | – | – | – | Growth in % of control (mean ± SEM) ([6]; 0.5 μg/ml): 15.8 ± 13.2%; Growth in % of control (mean ± SEM) ([6]; 1 μg/ml): 12.1 ± 13.7%; Growth in % of control (mean ± SEM) ([6]; 5 μg/ml): 45.3 ± 7.2%; Growth in % of control (mean ± SEM) ([6]; 10 μg/ml): 74.4 ± 4.4%; feed consumption after 7 days of treatment [1]: 1.31; feed consumption after 14 days of treatment [1]: 1.54; Weight gain in 7 days after initiation of treatment [1]: 366 grams per chicken; Weight gain in 14 days after initiation of treatment [1]: 804^ grams per chicken; Mortality [1]: 2; mortality (no. of dead mice/total no. of tested mice) [2, 8]: (5/5); % parasitemia [2, 9]: 79%; mortality (no. of dead mice/total no. of tested mice) [2, 9]: 4/5; % parasitemia [2, 10]: 62%; mortality (no. of dead mice/total no. of tested mice) [2, 10]: 3/5; mortality (no. of dead mice/total no. of tested mice) [2, 11]: (5/5); mortality (no. of dead mice/total no. of tested mice) [2, 12]: (5/5); % parasitemia [2, 13]: 78%; mortality (no. of dead mice/total no. of tested mice) [2, 13]: 4/5; mortality (no. of dead mice/total no. of tested mice) [2, 14]: (5/5) |
| COc1ccc(/C=C/C(=O)c2ccc(O)cc2)cc1OC [drawing 73] | 0 | 0.1 | 5.2 | 27.4 | 17.8 | 34.3 | 65.6 | 80 | 21 | 35.1 | 39.9 | 73.4 | – |
| COc1cccc(OC)c1/C=C/C(=O)c1ccc(O)cc1 | 0 | 3.3 | 2.3 | 4.4 | 11.4 ± 9.2 | 21.5 ± 10.6 | 77.5 ± 4.3 | 93.1 ± 4.6 | 0 | 16.6 | 71 | 90.6 | – |
| C=CCOc1ccc(C(=O)/C=C/c2cccc(OC)c2OC)cc1 [drawing 81] | 10.8 | 14.2 | 8.8 | 13.8 | 13.9 ± 12.9 | 20.7 ± 17.1 | 82.1 ± 13.6 | 98.1 ± 1 | 0 | 17.2 | 68.2 | 73.1 | – |
| C=CCOc1ccc(C(=O)/C=C/c2cc(OC)cc(OC)c2)cc1 [drawing 85] | 0 | 0 | 4.6 | 25.4 | 10.6 ± 10.7 | 27.6 ± 23.3 | 82.8 ± 10 | 98.3 ± 0.9 | 13.8 | 15.3 | 74.3 | 98.6 | – |
| C=CCOc1ccc(C(=O)/C=C/c2ccc(OC)c(OC)c2)cc1 [drawing 84] | – | 0 | 0 | 15.6 | 15.2 ± 11.3 | 30.4 ± 23.2 | 70.4 ± 15.2 | 90.8 ± 9.7 | – | 11.4 | 22.8 | 68 | inhibition at 0.5 µg/mL ([5]; read-out: inhibition of malaria parasites (middle figure)): 2.9% |
| COc1ccc(/C=C/C(=O)c2ccccc2O)c(OC)c1 | 3 | 5.5 | 2.6 | 0 | 19.2 ± 18.1 | 37.6 ± 18.3 | 89.4 ± 13.8 | 98.3 ± 1 | 0 | 0.8 | 23.4 | 67.9 | – |
| C=CCOc1ccc(C(=O)/C=C/c2c(OC)cccc2OC)cc1 [drawing 83] | 1 | 1.3 | 0 | 0 | 11.3 ± 9.8 | 16.3 ± 12.4 | 63.7 ± 24.2 | 91.1 ± 4.1 | 0 | 27.4 | 39.7 | 65.7 | – |
